# Source: patent US10130670B2, “Composition for treating or preventing inflammatory skin disease, comprising, as active ingredient, immature citrus fruit extract, or synephrine or salt thereof” (BIO SPERCTRUM, INC., priority 2013, dated 2018)
# Key:
# [1] = test system: eotaxin-1; assay: eotaxin-1 reporter gene (luciferase) promoter activity in IL-4 treated fibroblast; assay type: cell-based; conditions: 10, 100 and 200 μM synephrine; 50 ng/ml IL-4; 24 hours; NIH/3T3
# Protocol: Human normal fibroblast (human normal fibroblast, NIH/3T3, department of dermatology in Aju University) was transformed by inserting Eotaxin-1 reporter gene into it with superfect (Quigen Co.), and then cultured in 5% concentration of CO2 cultivator under the condition of 37° C. for 24 hours. And then, the transformed fibroblast was inoculated into 24-well microplate with DMEM media so as to be about 2×10^5 cells per well, and treated with 1, 10, 100 ppm of unripe Citrus unshiu fruit extract, or 10, 100 and 200 μM of synephrine, respectively and then was treated simultaneously with 50 ng/ml of interleukin-4 (R&D, Minneapolis Minn., IL-4) known to induce eotaxin-1, cultivated for 24 hours to collect cells. Then, the collected cells were crushed and reacted with a substrate of luciferase to determine luminescence, and a promoter activity of eotaxin-1 was determined. The results are represented in FIG. 1.
# [2] = test system: eotaxin-1; assay: extracellular secretion of eotaxin-1 by ELISA in IL-4 treated fibroblast; assay type: cell-based, human; conditions: 10, 100 and 200 μM synephrine; 50 ng/ml IL-4; 24 hours; NIH/3T3
# Protocol: Human normal fibroblast (human normal fibroblast, NIH/3T3, department of dermatology in Aju University) was inoculated into 24-well microplate with DMEM media so as to be about 2×10^5 cells per well, and cultured in 5% concentration of CO2 cultivator under the condition of 37° C. for 24 hours. And then, it was treated with 1, 10, 100 ppm of unripe Citrus unshiu fruit extract, or 10, 100 and 200 μM of synephrine, respectively and then was treated simultaneously with 50 ng/ml of interleukin-4 (R&D, Minneapolis Minn., IL-4), cultivated for 24 hours to collect cell culture media. And then, the degree of secretion of eotaxin-1 was determined by using ELISA kit. The results are represented in FIG. 2.
# [3] = test system: eotaxin-1 mRNA; assay: eotaxin-1 mRNA expression by quantitative Real-time PCR in IL-4 treated fibroblast; assay type: cell-based, human; conditions: 10, 100 and 200 μM synephrine; 50 ng/ml IL-4; 24 hours; NIH/3T3
# Protocol: Human normal fibroblast (human normal fibroblast, NIH/3T3, department of dermatology in Aju University) was inoculated into 24-well microplate with DMEM media to be about 2×10^5 cell per well, and cultured in 5% concentration of CO2 cultivator under 37° C. for 24 hours. And then, it was treated with 1, 10, 100 ppm of unripe Citrus unshiu fruit extract, or 10, 100 and 200 μM of synephrine, respectively and then was treated simultaneously with 50 ng/ml of interleukin-4 (R&D, Minneapolis Minn., IL-4), cultivated for 24 hours to collect cell culture media. After extracting tRNA from the collected cells, a complementary DNA (cDNA) was synthesized based on the extracted tRNA and then, a quantitative Real-time PCR was performed by using the synthesized complementary DNA as a template to determine the degree of expression for mRNA of eotaxin-1. The results are represented in FIG. 3.
# [4] = test system: STAT6; assay: STAT6 phosphorylation by Western blot in IL-4 treated fibroblast; assay type: cell-based, human; conditions: 10, 100, 200 ppm synephrine for 60 minutes, then 50 ng/ml IL-4 for 20 minutes; NIH/3T3
# Protocol: Human normal fibroblast (human normal fibroblast, NIH/3T3, department of dermatology in Aju University) was inoculated into 24-well microplate with DMEM media so as to be about 2×10^5 cells per well, and cultured in 5% concentration of CO2 cultivator under the condition of 37° C. for 24 hours. And then, it was treated with 10, 100, 200 ppm of synephrine for 60 minutes, respectively and then 50 ng/ml of IL-4 was treated to cultivate for 20 minutes. Then, the cells were collected to dissolve and then determine the degree of phosphorylation inhibition of STAT6 through Western blot. The results are represented in FIG. 3.
# [5] = test system: STAT6; assay: translocation of STAT6 into the nucleus, confocal microscopy; assay type: cell-based; conditions: 200 μM synephrine for 60 minutes, then 50 ng/ml IL-4 for 24 hours; NIH/3T3
# Protocol: Human normal fibroblast (human normal fibroblast, NIH/3T3, department of dermatology in Aju University) was inoculated into 24-well microplate with DMEM media so as to be about 2×10^5 cells per well, and cultured in 5% concentration of CO2 cultivator under the condition of 37° C. for 24 hours. And then, it was treated with 200 μM of synephrine for 60 minutes, respectively and then was treated with 50 ng/ml of IL-4 to cultivate for 24 hours. And then, the cells was immobilized with paraformaldehyde (PFA) and treated with the primary antibody specifically reacting with STAT6. […] The results are represented in FIG. 5.
# [6] = test system: eosinophil; assay: eosinophil transmigration in co-cultivation with IL-4 treated fibroblast; assay type: cell-based; conditions: 10, 100 and 200 μM synephrine; 50 ng/ml IL-4; 24 hours
# Protocol: Human normal fibroblast (human normal fibroblast, NIH/3T3, department of dermatology in Aju University) was inoculated into 24-well co-cultivation plate with DMEM media so as to be about 2×10^5 cells per well, and cultured in 5% concentration of CO2 cultivator under the condition of 37° C. for 24 hours. And then, it was treated with 10, 100 and 200 μM of synephrine for 60 minutes, respectively and then 50 ng/ml of IL-4 was treated to induce the expression of eotaxin-1. Simultaneously, eosinophil was inoculated and cultivated for 24 hours. After the cultivation, the transmigration degree of eosinophil moved through the membrane to bottom of the plate was determined. The determination was measured via a fluorescence staining by using CytoSelect™ 24-Well Cell Migration Assay kit (Cell biolabs, INC., USA). The results are represented in FIG. 6.
# [7] = test system: human skin; assay: accumulated patch test for safety to the human skin; assay type: in vivo; conditions: for Mean reaction degree: 30 adults, 9 patches, less than 3 = safe
# Protocol: In order to identify as to whether the unripe Citrus unshiu fruit extract or synephrine isolated from the unripe Citrus unshiu fruit is safe or not, the skin external preparation based on squalene wherein 1, 10 and 100 ppm of the unripe Citrus unshiu fruit extract prepared in Example 1 were added, was prepared, and the skin external preparation wherein 10, 150 and 300 ppm of synephrine of Example 2 were added, were prepared, respectively.
# Then, the skin external preparations were applied as a patch to areas of humerus of 30 adults for accumulated 24 hours on alternate day in total 9 times to test as to whether synephrine stimulates the skin. The control used the skin external preparation based on squalene wherein the unripe Citrus unshiu fruit extract or synephrine was not comprised.
# The patch used Finn chamber (Epitest Ltd, Filand) and the patch was practiced after dropping with 15 μl of the skin external preparations prepared from the above, respectively. The degree of the reaction represented on the skin in every time was scored by using the below experimental formula 1. Mean reaction degree=[{(reaction index×reaction degree)/(total number of the subject×the highest score (four point))}×100]/times of the test [Experimental Formula 1]
# At this time, in the reaction degree, ± represents 1 score (point), + represents 2 score and ++ represents 4 score,
# When the mean reaction degree is less than 3, it is considered as being the safe composition.
# [8] = test system: children of atopy patients; assay: effect for improving atopy of cream, EASI score; assay type: in vivo, human; conditions: for EASI score (5 = no improvement, 0 = many improvements): cream 0.03 or 0.01% by weight, twice per day, 30 children
# Protocol: Creams comprising the unripe Citrus unshiu fruit extract or synephrine isolated from it, having the ingredients and contents shown in below Table 2 were prepared. Specifically, aqueous phase, the purified water, triethanolamine and propylene glycol were heated to 70° C. to dissolve them, and then to it added the liquid in which oil phase, fatty acid, oily component, emulsifier and preservative were heated to 70° C. to dissolve them and stirred with homomixer (Tokushu Kika Ltd., Japan) to emulsify them. After the emulsifying them was completed, the said solution was cooled to 45° C., 0.03% by weight or 0.01% by weight of the unripe Citrus unshiu fruit extract or synephrine based on the total weight of the composition was added, dispersed and then cooled to 30° C.
# Cream comprising 0.03 or 0.01% by weight of the unripe Citrus unshiu fruit extract or synephrine isolated from it, prepared according to the method of 10-1 as above was used for 30 children of atopy patients twice per day for 4 weeks. The control used the cream comprising the purified water instead of the unripe Citrus unshiu fruit extract or synephrine.
# The effect improving atopy was determined by using Eczema Area Severity Index (EASI) score, the determination criterion was set as 5 for the case that there is no improvement of atopy, and 0 for the case that there are many improvements of atopy and the relative values were compared.
smiles,measurement,setting,value
"CNCC(O)c1ccc(O)cc1 (stereo not drawn) [synephrine, 4-[1-hydroxy-2-(methylamino)ethyl]phenol]",promoter activity of eotaxin-1 derived by IL-4,[1],reduced
same,extracellular secretion of eotaxin-1 derived by IL-4,[2],reduced
same,expression of mRNA of eotaxin-1 derived by IL-4,[3],reduced
same,phosphorylation of STAT6 derived by IL-4,[4],effectively inhibits
same,translocation of STAT6 derived by IL-4 into the nucleus,[5],inhibits
same,movement of eosinophil derived by eotaxin-1 expressed from the treatment of IL-4,[6],inhibits
same,skin reaction in the patch test,"[7]; 10, 150 and 300 ppm, all test groups, all 9 patches",did not represent the skin reaction
same,Mean reaction degree,[7]; 10 ppm in squalene-based skin external preparation,0.00
same,Mean reaction degree,[7]; 150 ppm in squalene-based skin external preparation,0.00
same,Mean reaction degree,[7]; 300 ppm in squalene-based skin external preparation,0.00
same,"safety to the human skin, judged from mean reaction degree","[7]; all tested concentrations, mean reaction degree less than 3 = safe",safe material
same,"EASI score (5 = no improvement, 0 = many improvements)",[8]; 1st week,2.82
same,"EASI score (5 = no improvement, 0 = many improvements)",[8]; 2nd week,1.51
same,"EASI score (5 = no improvement, 0 = many improvements)",[8]; 4th week,0.63
same,EASI score compared to the control,[8]; cream used for 4 weeks,reduced compared to the control
